Measurements published in publication PMC10892423 (Pharmaceutics, 2024).
≈ marks a conversion by molar mass, not a printed value.

Legend:
NDM-1 = target: T1, NDM-1 (Klebsiella pneumoniae, UniProt C7C422); assay: β-lactamase inhibition, imipenem hydrolysis; type: biochemical; conditions: imipenem substrate; read-out: β-Lactamases, IC50 NDM-1
T1 construct: purchased RayBiotech, Inc. 230-00554
Text: (§1) Recombinant AmpC from Escherichia coli was produced according to a previously reported protocol. KPC-2 and NDM-1 […] were purchased from LifeSpan Biosciences, Inc. (Lynnwood, WA, USA) (LS-G26598) and RayBiotech, Inc. (Peachtree Corners, GA, USA) (230-00554), respectively. Genes encoding OXA-48 (residues 23–265) and VIM-2 (residues 27–266) were custom-synthesized (Bioneer Inc., Seoul, Republic of Korea) and expressed as previously described. The β-lactamase inhibitory activity of the title compounds was then determined according to the previously reported methods. Briefly, equal volumes (100 μL) of the title compounds (70–0.1 μM in PBS) and diluted enzyme stock were mixed (final concentration 2% of DMSO in 200 μL) in 96-well plates, which were then incubated at 37 °C for 20 min. The incubated mixture was added to each well containing substrates (nitrocefin for AmpC, KPC-2, OXA-48, and VIM-2; and imipenem for NDM-1) of final concentrations of 70 μM for nitrocefin and 100 μM for imipenem. Substrate hydrolysis was monitored at 486 nm (nitrocefin) or 300 nm (imipenem) for 15 min, using a Cytation 5 imaging multimode reader (BioTek Instruments Inc., Winooski, VT, USA). At the plateau level of hydrolysis, the corresponding rates of hydrolysis were compared to those obtained without inhibitors (100%) to determine the percentage of enzyme inhibition at each concentration of the title compounds. The IC50 values of the compounds were derived from sigmoidal dose–response curves, using GraphPad Prism 5 (GraphPad Software, Boston, MA, USA).

OXA-48 = target: T2, OXA-48 (Klebsiella pneumoniae, UniProt Q6XEC0); assay: β-lactamase inhibition, nitrocefin hydrolysis; type: biochemical; conditions: nitrocefin substrate; read-out: β-Lactamases, IC50 OXA-48
T2 construct: Genes encoding OXA-48 (residues 23–265) and VIM-2 (residues 27–266) were custom-synthesized; made in house
Text: as §1

KPC-2 = target: T3, KPC-2 (Klebsiella pneumoniae, UniProt Q9F663); assay: β-lactamase inhibition, nitrocefin hydrolysis; type: biochemical; conditions: nitrocefin substrate; read-out: β-Lactamases, IC50 KPC-2
T3 construct: purchased LifeSpan Biosciences, Inc. LS-G26598
Text: as §1

VIM-2 = target: T4, VIM-2 (Escherichia coli, UniProt Q5U7L7); assay: β-lactamase inhibition, nitrocefin hydrolysis; type: biochemical; conditions: nitrocefin substrate; read-out: β-Lactamases, IC50 VIM-2
T4 construct: Genes encoding OXA-48 (residues 23–265) and VIM-2 (residues 27–266) were custom-synthesized; made in house
Text: as §1

AmpC = target: T5, AmpC (Escherichia coli, UniProt P00811); assay: β-lactamase inhibition, nitrocefin hydrolysis; type: biochemical
T5 construct: made in house
Text: as §1

[1] = tested on: MBL-producing P. aeruginosa clinical isolates; assay: MIC by broth microdilution (CLSI); type: cell-based, Pseudomonas aeruginosa; conditions: for MIC: Pseudomonas aeruginosa
Protocol: The DMSO stock solutions of the test compounds were serially diluted to the desired concentrations in CAMHB. Then, 10 μL of the bacterial suspension (5 × 10^5 colony forming units (CFU)/mL) was combined with 200 μL of DMSO stock solutions of the test compounds in 96-well microtiter plates (1% DMSO, final). After the incubation of the plate at 37 °C for 24 h, bacterial growth was visibly evaluated by monitoring the turbidity of the resulting suspension, and the MICs were determined as the lowest concentrations of the test compounds that inhibited the visible growth of the bacteria.

T3 sequence (Q9F663 25-293, looked up): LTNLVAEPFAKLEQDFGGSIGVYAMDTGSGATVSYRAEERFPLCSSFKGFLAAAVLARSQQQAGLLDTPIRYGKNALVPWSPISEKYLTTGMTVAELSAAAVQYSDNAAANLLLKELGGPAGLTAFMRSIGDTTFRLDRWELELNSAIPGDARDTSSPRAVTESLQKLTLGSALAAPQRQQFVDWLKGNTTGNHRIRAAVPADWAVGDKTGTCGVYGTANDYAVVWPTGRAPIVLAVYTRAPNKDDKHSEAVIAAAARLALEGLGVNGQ
T1 sequence (C7C422 29-270, looked up, species assumed): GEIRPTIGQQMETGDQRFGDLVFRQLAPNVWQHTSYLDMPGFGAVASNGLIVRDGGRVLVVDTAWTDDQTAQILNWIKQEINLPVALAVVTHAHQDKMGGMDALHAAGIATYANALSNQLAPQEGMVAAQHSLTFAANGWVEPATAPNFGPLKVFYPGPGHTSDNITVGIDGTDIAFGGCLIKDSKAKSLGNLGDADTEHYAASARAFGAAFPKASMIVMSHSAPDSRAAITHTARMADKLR
T2 sequence (Q6XEC0 23-265 limits assumed): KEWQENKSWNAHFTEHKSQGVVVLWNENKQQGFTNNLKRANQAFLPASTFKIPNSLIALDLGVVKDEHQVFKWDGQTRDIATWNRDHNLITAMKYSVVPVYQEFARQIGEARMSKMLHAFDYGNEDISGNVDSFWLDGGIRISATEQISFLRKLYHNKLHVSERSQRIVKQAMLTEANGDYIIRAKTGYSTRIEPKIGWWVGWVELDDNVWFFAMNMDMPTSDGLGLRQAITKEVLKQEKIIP
T5 sequence (P00811 20-377): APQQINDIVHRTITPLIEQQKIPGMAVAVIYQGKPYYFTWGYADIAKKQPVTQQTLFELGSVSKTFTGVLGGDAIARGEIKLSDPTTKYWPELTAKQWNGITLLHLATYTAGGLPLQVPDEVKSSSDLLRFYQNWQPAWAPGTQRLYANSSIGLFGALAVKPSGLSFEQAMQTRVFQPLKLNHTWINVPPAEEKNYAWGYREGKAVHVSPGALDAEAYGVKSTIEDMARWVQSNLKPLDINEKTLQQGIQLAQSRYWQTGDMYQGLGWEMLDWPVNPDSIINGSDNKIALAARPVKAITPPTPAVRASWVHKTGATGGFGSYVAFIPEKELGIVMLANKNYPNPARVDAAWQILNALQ

O=c1c(OCCC(F)(F)F)c(-c2ccc(F)c(F)c2)oc2cc(O)cc(O)c12 [Compound 22]
IC50 (NDM-1): > 50 µM
IC50 (OXA-48): 39.8 µM
IC50 (KPC-2): > 50 µM
IC50 (VIM-2): > 100 µM
IC50 (AmpC): > 50 µM

CC(C)OC(=O)OCOc1c(-c2ccc(F)c(F)c2)oc2cc(O)cc(O)c2c1=O [Compound 5]
IC50 (NDM-1): > 50 µM
IC50 (OXA-48): 42.7 µM
IC50 (KPC-2): > 50 µM
IC50 (VIM-2): > 100 µM
IC50 (AmpC): > 50 µM

O=c1c(OCCN2CCOCC2)c(-c2ccc(F)c(F)c2)oc2cc(O)cc(O)c12 [Compound 20]
IC50 (NDM-1): > 50 µM
IC50 (OXA-48): > 100 µM
IC50 (KPC-2): > 50 µM
IC50 (VIM-2): > 100 µM
IC50 (AmpC): > 50 µM

C[C@@H](O)[C@H]1C(=O)N2C(C(=O)O)=C(S[C@@H]3CN[C@H](C(=O)N(C)C)C3)[C@H](C)[C@H]12 [MEM, meropenem]
MIC ([1]; PA-001, blaNDM): > 32 µg/mL
MIC ([1]; PA-002, blaIMP): > 32 µg/mL
MIC ([1]; PA-007, blaNDM): > 32 µg/mL
MIC ([1]; PA-008, blaNDM): > 32 µg/mL
MIC ([1]; PA-011, blaNDM): > 32 µg/mL
MIC ([1]; PA-012, blaNDM): > 32 µg/mL
MIC ([1]; PA-016, blaIMP): > 32 µg/mL
MIC ([1]; PA-017, blaNDM): > 32 µg/mL
MIC ([1]; PA-019, blaNDM): > 32 µg/mL
MIC ([1]; PA-020, blaNDM): > 32 µg/mL
MIC ([1]; PA-023, blaNDM): > 32 µg/mL
MIC ([1]; PA-025, blaNDM): > 32 µg/mL
MIC ([1]; PA-027, blaIMP): > 32 µg/mL
MIC ([1]; PA-028, blaNDM): > 32 µg/mL
MIC ([1]; PA-029, blaIMP): > 32 µg/mL
MIC ([1]; PA-030, blaIMP): > 32 µg/mL
MIC ([1]; PA-034, blaNDM): > 32 µg/mL
MIC ([1]; PA-036, blaNDM): > 32 µg/mL
MIC ([1]; PA-038, blaNDM): > 32 µg/mL
MIC ([1]; PA-039, blaNDM): > 32 µg/mL
MIC ([1]; PA-044, blaNDM): > 32 µg/mL

O=c1c(OCCOCCO)c(-c2ccc(F)c(F)c2)oc2cc(O)cc(O)c12 [Compound 9]
IC50 (NDM-1): > 50 µM
IC50 (OXA-48): > 100 µM
IC50 (KPC-2): > 50 µM
IC50 (VIM-2): > 100 µM
IC50 (AmpC): > 50 µM

C[C@@H](O)[C@H]1C(=O)N2C(C(=O)O)=C(SCCN=CN)C[C@H]12 [IPM, imipenem]
MIC ([1]; PA-001, blaNDM): > 8 µg/mL
MIC ([1]; PA-002, blaIMP): > 8 µg/mL
MIC ([1]; PA-007, blaNDM): > 8 µg/mL
MIC ([1]; PA-008, blaNDM): > 8 µg/mL
MIC ([1]; PA-011, blaNDM): > 8 µg/mL
MIC ([1]; PA-012, blaNDM): > 8 µg/mL
MIC ([1]; PA-016, blaIMP): > 8 µg/mL
MIC ([1]; PA-017, blaNDM): > 8 µg/mL
MIC ([1]; PA-019, blaNDM): > 8 µg/mL
MIC ([1]; PA-020, blaNDM): > 8 µg/mL
MIC ([1]; PA-023, blaNDM): > 8 µg/mL
MIC ([1]; PA-025, blaNDM): > 8 µg/mL
MIC ([1]; PA-027, blaIMP): > 8 µg/mL
MIC ([1]; PA-028, blaNDM): > 8 µg/mL
MIC ([1]; PA-029, blaIMP): > 8 µg/mL
MIC ([1]; PA-030, blaIMP): > 8 µg/mL
MIC ([1]; PA-034, blaNDM): > 8 µg/mL
MIC ([1]; PA-036, blaNDM): > 8 µg/mL
MIC ([1]; PA-038, blaNDM): > 8 µg/mL
MIC ([1]; PA-039, blaNDM): > 8 µg/mL
MIC ([1]; PA-044, blaNDM): > 8 µg/mL

NCC[C@H](O)C(=O)N[C@@H]1C[C@H](N)[C@@H](O[C@H]2O[C@H](CN)[C@@H](O)[C@H](O)[C@H]2O)[C@H](O)[C@H]1O[C@H]1O[C@H](CO)[C@@H](O)[C@H](N)[C@H]1O [AMK, amikacin]
MIC ([1]; PA-001, blaNDM): > 32 µg/mL
MIC ([1]; PA-002, blaIMP): > 32 µg/mL
MIC ([1]; PA-007, blaNDM): > 32 µg/mL
MIC ([1]; PA-008, blaNDM): > 32 µg/mL
MIC ([1]; PA-011, blaNDM): > 32 µg/mL
MIC ([1]; PA-012, blaNDM): ≤ 4 µg/mL
MIC ([1]; PA-016, blaIMP): > 32 µg/mL
MIC ([1]; PA-017, blaNDM): > 32 µg/mL
MIC ([1]; PA-019, blaNDM): > 32 µg/mL
MIC ([1]; PA-020, blaNDM): > 32 µg/mL
MIC ([1]; PA-023, blaNDM): > 32 µg/mL
MIC ([1]; PA-025, blaNDM): > 32 µg/mL
MIC ([1]; PA-027, blaIMP): > 32 µg/mL
MIC ([1]; PA-028, blaNDM): > 32 µg/mL
MIC ([1]; PA-029, blaIMP): > 32 µg/mL
MIC ([1]; PA-030, blaIMP): > 32 µg/mL
MIC ([1]; PA-034, blaNDM): > 32 µg/mL
MIC ([1]; PA-036, blaNDM): > 32 µg/mL
MIC ([1]; PA-038, blaNDM): > 32 µg/mL
MIC ([1]; PA-039, blaNDM): ≤ 4 µg/mL
MIC ([1]; PA-044, blaNDM): > 32 µg/mL

colistin [CST]
MIC Value ([1]; PA-001, blaNDM): ≤1 µg/mL
MIC Value ([1]; PA-002, blaIMP): ≤1 µg/mL
MIC Value ([1]; PA-007, blaNDM): ≤1 µg/mL
MIC Value ([1]; PA-008, blaNDM): ≤1 µg/mL
MIC Value ([1]; PA-011, blaNDM): ≤1 µg/mL
MIC Value ([1]; PA-012, blaNDM): ≤1 µg/mL
MIC Value ([1]; PA-016, blaIMP): ≤1 µg/mL
MIC Value ([1]; PA-017, blaNDM): ≤1 µg/mL
MIC Value ([1]; PA-019, blaNDM): ≤1 µg/mL
MIC Value ([1]; PA-020, blaNDM): ≤1 µg/mL
MIC Value ([1]; PA-023, blaNDM): ≤1 µg/mL
MIC Value ([1]; PA-025, blaNDM): ≤1 µg/mL
MIC Value ([1]; PA-027, blaIMP): ≤1 µg/mL
MIC Value ([1]; PA-028, blaNDM): ≤1 µg/mL
MIC Value ([1]; PA-029, blaIMP): ≤1 µg/mL
MIC Value ([1]; PA-030, blaIMP): ≤1 µg/mL
MIC Value ([1]; PA-034, blaNDM): ≤1 µg/mL
MIC Value ([1]; PA-036, blaNDM): ≤1 µg/mL
MIC Value ([1]; PA-038, blaNDM): ≤1 µg/mL
MIC Value ([1]; PA-039, blaNDM): ≤1 µg/mL
MIC Value ([1]; PA-044, blaNDM): ≤1 µg/mL

CNC(C)C1CCC(N)C(OC2C(N)CC(N)C(OC3OCC(C)(O)C(NC)C3O)C2O)O1 (centres unmarked) [GEN, gentamicin]
MIC ([1]; PA-001, blaNDM): > 8 µg/mL
MIC ([1]; PA-002, blaIMP): > 8 µg/mL
MIC ([1]; PA-007, blaNDM): > 8 µg/mL
MIC ([1]; PA-008, blaNDM): > 8 µg/mL
MIC ([1]; PA-011, blaNDM): > 8 µg/mL
MIC ([1]; PA-012, blaNDM): 8 µg/mL (≈ 16.8 µM)
MIC ([1]; PA-016, blaIMP): > 8 µg/mL
MIC ([1]; PA-017, blaNDM): > 8 µg/mL
MIC ([1]; PA-019, blaNDM): > 8 µg/mL
MIC ([1]; PA-020, blaNDM): > 8 µg/mL
MIC ([1]; PA-023, blaNDM): > 8 µg/mL
MIC ([1]; PA-025, blaNDM): > 8 µg/mL
MIC ([1]; PA-027, blaIMP): > 8 µg/mL
MIC ([1]; PA-028, blaNDM): > 8 µg/mL
MIC ([1]; PA-029, blaIMP): > 8 µg/mL
MIC ([1]; PA-030, blaIMP): > 8 µg/mL
MIC ([1]; PA-034, blaNDM): > 8 µg/mL
MIC ([1]; PA-036, blaNDM): > 8 µg/mL
MIC ([1]; PA-038, blaNDM): > 8 µg/mL
MIC ([1]; PA-039, blaNDM): ≤ 2 µg/mL
MIC ([1]; PA-044, blaNDM): > 8 µg/mL
